From ChEMBL document CHEMBL3044537, “Radiolabeling of EGCG with 131I and biodistribution in rats” (Med Chem Res, 2012)

Tests used:
Kidney [1] = test: Biodistribution in Rattus norvegicus Wistar albino (rat) kidney at 74 MBq/umol, iv measured at 60 min; format: ADME, organism-based; settings: in vivo, 1 h
Pancreas = test: Biodistribution in Rattus norvegicus Wistar albino (rat) pancreas at 74 MBq/umol, iv measured at 30 min; format: ADME, organism-based; settings: in vivo, 0.5 h
Stomach [2] = test: Biodistribution in Rattus norvegicus Wistar albino (rat) stomach at 74 MBq/umol, iv after 60 min; format: ADME, organism-based; settings: in vivo, 1 h
Lung [3] = test: Biodistribution in Rattus norvegicus Wistar albino (rat) lung at 74 MBq/umol, iv measured at 30 min; format: ADME, organism-based; settings: in vivo, 0.5 h
[4] = Biodistribution in Rattus norvegicus Wistar albino (rat) lung at 74 MBq/umol, iv administered 60 min post dose of non radiolabelled compound measured at 30 min; format: ADME, organism-based; settings: read-out: Drug uptake
Liver [5] = test: Biodistribution in Rattus norvegicus Wistar albino (rat) liver at 74 MBq/umol, iv measured at 60 min; format: ADME, organism-based; settings: in vivo, 1 h
[6] = Octanol-water partition coefficient of the compound; format: physicochemical; settings: read-out: log KOW
Large intestine [7] = test: Biodistribution in Rattus norvegicus Wistar albino (rat) large intestine at 74 MBq/umol, iv measured at 60 min; format: ADME, organism-based; settings: in vivo, 1 h
Large intestine [8] = test: Biodistribution in Rattus norvegicus Wistar albino (rat) large intestine at 74 MBq/umol, iv after 60 min; format: ADME, organism-based; settings: in vivo, 1 h
[9] = Metabolic stability in Homo sapiens (human) serum at 4 hr; format: ADME; settings: read-out: Stability
Rattus norvegicus = test: Ratio of drug uptake in Rattus norvegicus Wistar albino (rat) lung to muscle at 74 MBq/umol, iv measured at 30 min; settings: in vivo, 0.5 h
[10] = Biodistribution in Rattus norvegicus Wistar albino (rat) lung at 74 MBq/umol, iv administered 60 min post dose of non radiolabelled compound measured at 60 min; format: ADME, organism-based; settings: read-out: Drug uptake
[11] = Metabolic stability in Homo sapiens (human) serum at 2 hr; format: ADME; settings: read-out: Stability
Small intestine [12] = test: Biodistribution in Rattus norvegicus Wistar albino (rat) small intestine at 74 MBq/umol, iv after 60 min; format: ADME, organism-based; settings: in vivo, 1 h
[13] = Metabolic stability in Homo sapiens (human) serum at 3 hr; format: ADME; settings: read-out: Stability
Liver [14] = test: Biodistribution in Rattus norvegicus Wistar albino (rat) liver at 74 MBq/umol, iv after 60 min; format: ADME, organism-based; settings: in vivo, 1 h
Kidney [15] = test: Biodistribution in Rattus norvegicus Wistar albino (rat) kidney at 74 MBq/umol, iv after 60 min; format: ADME, organism-based; settings: in vivo, 1 h
Small intestine [16] = test: Biodistribution in Rattus norvegicus Wistar albino (rat) small intestine at 74 MBq/umol, iv measured at 60 min; format: ADME, organism-based; settings: in vivo, 1 h
Lung [17] = test: Biodistribution in Rattus norvegicus Wistar albino (rat) lung at 74 MBq/umol, iv administered 60 min post dose of non radiolabelled compound measured at 150 min; format: ADME, organism-based; settings: in vivo, 2.5 h
[18] = Ratio of drug uptake in Rattus norvegicus Wistar albino (rat) lung to blood at 74 MBq/umol, iv measured at 30 min; format: ADME, organism-based
Stomach [19] = test: Biodistribution in Rattus norvegicus Wistar albino (rat) stomach at 74 MBq/umol, iv measured at 60 min; format: ADME, organism-based; settings: in vivo, 1 h
[20] = Metabolic stability in Homo sapiens (human) serum at 24 hr; format: ADME; settings: read-out: Stability

Question: For `O=C(O[C@@H]1Cc2c(cc(O)c([131I])c2O)O[C@@H]1c1cc(O)c(O)c(O)c1)c1cc(O)c(O)c(O)c1` [[131I]-EPIGALLOCATECHIN GALLATE], which Drug uptake (Kidney [1]) is on record?
Answer: 0.37 % ID/g

Question: What about the Drug uptake (Pancreas) of the same molecule?
Answer: 0.32 % ID/g

Question: What about the Drug uptake (Stomach [2]) of the same molecule?
Answer: Not Active

Question: What about the Drug uptake (Lung [3]) of the same molecule?
Answer: 0.45 % ID/g

Question: And the tissue uptake at 0.5 h [4]?
Answer: 0.25 %ID/g

Question: And the Drug uptake (Liver [5])?
Answer: 0.23 % ID/g

Question: What about the logP [6] of the same molecule?
Answer: 1.46

Question: What about the Drug uptake (Large intestine [7]) of the same molecule?
Answer: 1.04 % ID/g

Question: What about the Drug uptake (Large intestine [8]) of the same molecule?
Answer: Not Active

Question: What about the remaining at 4 h [9] of the same molecule?
Answer: 84%

Question: And the Ratio (Rattus norvegicus)?
Answer: 2.69

Question: What about the tissue uptake at 1 h [10] of the same molecule?
Answer: 0.23 %ID/g

Question: And the remaining at 2 h [11]?
Answer: 87%

Question: And the Drug uptake (Small intestine [12])?
Answer: Not Active

Question: And the remaining at 3 h [13]?
Answer: 86%

Question: What about the Drug uptake (Liver [14]) of the same molecule?
Answer: Not Active

Question: And the Drug uptake (Kidney [15])?
Answer: Not Active

Question: And the Drug uptake (Small intestine [16])?
Answer: 0.71 % ID/g

Question: And the Drug uptake (Lung [17])?
Answer: 0.22 % ID/g

Question: What about the Kp at 0.5 h [18] of the same molecule?
Answer: 0.96

Question: What about the Drug uptake (Stomach [19]) of the same molecule?
Answer: 2.76 % ID/g

Question: And the remaining at 24 h [20]?
Answer: 83%
